Tested on: direct pancreatic cancer xenografts (fine needle aspiration cells)
Test: Ex vivo perturbability assay, low-density microarray RT-PCR
Format: cell-based
Design: key to RRM1 gene expression / NFKB1 gene expression / BNIP3L gene expression / VHL gene expression / DCK gene expression / HIF1B gene expression / IGF1R gene expression / MAPK1 gene expression / MAP2K2 gene expression / JUN gene expression / IHH gene expression: % of untreated control (treated sample normalized to untreated)
Settings: treated normalized to untreated control
Source text: Direct pancreatic cancer derived xenografts: Resected pancreatic adenocarcinomas are routinely implanted in nude mice at the Johns Hopkins Medical Institutions as a method to obtain enriched populations of neoplastic cells under an IRB-approved protocol from residual pancreatic cancer tumors. Tumor specimens from Whipple resection specimens were divided into 2-3 mm^3 pieces in antibiotic-containing RPMI media. Pieces of non-necrotic tissue were selected and immersed in Matrigel. Under anesthesia with isofluorane, tumors were implanted into five-to-six week-old female athymic (nu/nu) mice purchased from Harlan (Harlan Laboratories, Washington, D.C.). This research protocol was approved by the Johns Hopkins University Animal Use and Care Committee arid animals were maintained in accordance to guidelines of the American Association of Laboratory Animal Care. Tumors were propagated to subsequent cohorts of mice until a sufficient number were available for drug testing.
Fine needle aspiration (FNA): FNAs on mice were performed according to standard cytopathologic practice using 10 cc syringes and 25-gauge needles. The procedure was performed under inhaled general anesthesia with isofluorane. During each FNA procedure the first pass was smeared onto glass slides and used for morphologic analysis and quality control, (DiffQuik™ and Papanicoloau), and the second through sixth passes were used to acquire viable cells.
Ex vivo assay: FNA passes used to acquire viable cells were immediately transferred into 10 ml sterile prewarmed complete RPMI-1640 culture medium containing 10% FBS, penicillin (200 ug/ml), and streptomycin (200 ug/ml). Equivalent aliquots of cells were seeded in two wells of a 6-well polypropylene microplate. […] Following treatment, non-adherent and adherent cells (collected by scraping) were pooled together in a 1.5 mL microcentrifuge tube and centrifuged at 500 g for 5 mm at 4° C. After washing with PBS, cells were lysed in 100 μL of ice-cold RLT.
RNA extraction and cDNA generation: Total RNA was extracted from cells using the RNeasy™ Mini Kit (Qiagen, Valencia, Calif.) following the manufacturer's instructions. cDNA was synthesized using iScript cDNA synthesis kit (Bio-Rad) following the manufacturer's instructions.
Low-density micro arrays (LDMA): The samples were run in a customized assay with a 384-well format (ABI, Foster City, Calif.), where the expression of 45 to 381 relevant genes can be quantitatively tested. For this example, the array was designed with 8 replicated sections containing 48 wells, with primers of one gene per well: 3 housekeeping genes (HK: UBC, HPRT, SDHA), and 45 genes of interest. 50 μL of cDNA plus 50 μL of ABI mastermix were loaded onto each of two contiguous lanes to have duplicated readouts of every sample, and were run by real-time reverse transcriptase PCR (RT-PCR). The amount of change in the target genes was calculated by comparing the threshold cycle (CT) of each gene to the geometric mean of the CTs of the HK genes. Relative expression of the target genes was estimated using the formula: relative expression=2−^ΔCT, where ΔCT=CT (target gene)−CT (average of the 3 HK genes). The experiment was run in duplicate and mean values are analyzed.
Data analysis: The expression level of each gene in the treated sample was normalized to that of the untreated control. A significant change was defined when the gene expression either increases two-fold or more (>200%), or decreases to half or more (<50%). The rest is considered uninformative.

Molecule Nc1ccn([C@@H]2O[C@H](CO)[C@@H](O)C2(F)F)c(=O)n1 [gemcitabine] has an AXIN2 gene expression (case #6) of 517, a BAX gene expression (case #6) of 110 and a BNIP3L gene expression (case #6) of 105. For the same molecule, the BRAF gene expression (case #6) was 88, the BRCA1 gene expression (case #6) was 195 and the CCND1 gene expression (case #6) was 85. The CXCR4 gene expression (case #6) was 0, the CyclinB1 gene expression (case #6) was 84 and the DCK gene expression (case #6) was 91. The EGFR gene expression (case #6) was 74, the ERCC1 gene expression (case #6) was 150 and the FOS gene expression (case #6) was 106. For the same molecule, the GADD45A gene expression (case #6) was 75, the GLI2 gene expression (case #6) was 85 and the HIF1A gene expression (case #6) was 102. The HIF1B gene expression (case #6) was 65, the IGF1R gene expression (case #6) was 82 and the IGFBP3 gene expression (case #6) was 34. It also gave an IHH gene expression (case #6) of 122, an MAP2K2 gene expression (case #6) of 98 and an MAPK1 gene expression (case #6) of 90. It also gave an MAPK3 gene expression (case #6) of 75, an MDM2 gene expression (case #6) of 81 and an MSLN gene expression (case #6) of 101. For the same molecule, the NFKB1 gene expression (case #6) was 83, the NOTCH1 gene expression (case #6) was 60 and the NOTCH2 gene expression (case #6) was 79. For the same molecule, the PLK1 gene expression (case #6) was 31, the PSCA gene expression (case #6) was 132 and the PTCH gene expression (case #6) was 153. For the same molecule, the SHH gene expression (case #6) was 116, the Survivin gene expression (case #6) was 145 and the TGFA gene expression (case #6) was 101. It also gave a VEGF gene expression (case #6) of 91, a VHL gene expression (case #6) of 111 and a p21 gene expression (case #6) of 122. The AXIN2 gene expression (case #7) was 41, the BAX gene expression (case #7) was 100 and the BNIP3L gene expression (case #7) was 100. The BRAF gene expression (case #7) was 40, the BRCA1 gene expression (case #7) was 89 and the CCND1 gene expression (case #7) was 127. It also gave a CXCR4 gene expression (case #7) of 5, a CyclinB1 gene expression (case #7) of 16 and a DCK gene expression (case #7) of 102. For the same molecule, the EGFR gene expression (case #7) was 151, the ERCC1 gene expression (case #7) was 153 and the FOS gene expression (case #7) was 139. The GADD45A gene expression (case #7) was 96, the GLI2 gene expression (case #7) was 73 and the HIF1A gene expression (case #7) was 115. For the same molecule, the HIF1B gene expression (case #7) was 102, the IGF1R gene expression (case #7) was 28 and the IGFBP3 gene expression (case #7) was 78. It also gave an IHH gene expression (case #7) of 81, a JUN gene expression (case #7) of 80 and an MAP2K2 gene expression (case #7) of 131. For the same molecule, the MAPK1 gene expression (case #7) was 93, the MAPK3 gene expression (case #7) was 167 and the MDM2 gene expression (case #7) was 180. For the same molecule, the MSLN gene expression (case #7) was 117, the NOTCH1 gene expression (case #7) was 104 and the NOTCH2 gene expression (case #7) was 112. For the same molecule, the PLK1 gene expression (case #7) was 98, the PSCA gene expression (case #7) was 91 and the PTCH gene expression (case #7) was 63. The RRM1 gene expression (case #7) was 129, the SHH gene expression (case #7) was 57 and the Survivin gene expression (case #7) was 85. The TGFA gene expression (case #7) was 131, the VEGF gene expression (case #7) was 115 and the VHL gene expression (case #7) was 80. It also gave a p21 gene expression (case #7) of 134, an AXIN2 gene expression (case #8) of 81 and a BAX gene expression (case #8) of 91. It also gave a BNIP3L gene expression (case #8) of 106, a BRAF gene expression (case #8) of 122 and a BRCA1 gene expression (case #8) of 59. It also gave a CCND1 gene expression (case #8) of 107, a CXCR4 gene expression (case #8) of 342 and a CyclinB1 gene expression (case #8) of 140. For the same molecule, the DCK gene expression (case #8) was 99, the EGFR gene expression (case #8) was 91 and the ERCC1 gene expression (case #8) was 98. The FOS gene expression (case #8) was 113, the GADD45A gene expression (case #8) was 147 and the GLI2 gene expression (case #8) was 531. The HIF1A gene expression (case #8) was 113, the HIF1B gene expression (case #8) was 566 and the IGF1R gene expression (case #8) was 101. For the same molecule, the IGFBP3 gene expression (case #8) was 83, the IHH gene expression (case #8) was 137 and the MAP2K2 gene expression (case #8) was 86. It also gave an MAPK1 gene expression (case #8) of 78, an MAPK3 gene expression (case #8) of 90 and an MDM2 gene expression (case #8) of 65. The MSLN gene expression (case #8) was 98, the NOTCH1 gene expression (case #8) was 118 and the NOTCH2 gene expression (case #8) was 122. The PLK1 gene expression (case #8) was 90, the PSCA gene expression (case #8) was 101 and the PTCH gene expression (case #8) was 203. The RRM1 gene expression (case #8) was 104, the SHH gene expression (case #8) was 77 and the Survivin gene expression (case #8) was 74. It also gave a TGFA gene expression (case #8) of 107, a VEGF gene expression (case #8) of 105 and a VHL gene expression (case #8) of 101. The p21 gene expression (case #8) was 100, the AXIN2 gene expression (case #9) was 106 and the BAX gene expression (case #9) was 92. The BNIP3L gene expression (case #9) was 95, the BRAF gene expression (case #9) was 93 and the BRCA1 gene expression (case #9) was 161. It also gave a CCND1 gene expression (case #9) of 97, a CXCR4 gene expression (case #9) of 649 and a CyclinB1 gene expression (case #9) of 115. For the same molecule, the DCK gene expression (case #9) was 117, the EGFR gene expression (case #9) was 85 and the ERCC1 gene expression (case #9) was 91. The FOS gene expression (case #9) was 83, the GADD45A gene expression (case #9) was 74 and the GLI2 gene expression (case #9) was 99. The HIF1A gene expression (case #9) was 100, the HIF1B gene expression (case #9) was 107 and the IGF1R gene expression (case #9) was 53. It also gave an IGFBP3 gene expression (case #9) of 42, an IHH gene expression (case #9) of 99 and a JUN gene expression (case #9) of 92. The MAP2K2 gene expression (case #9) was 90, the MAPK1 gene expression (case #9) was 99 and the MAPK3 gene expression (case #9) was 106. The MDM2 gene expression (case #9) was 92, the MSLN gene expression (case #9) was 107 and the NOTCH1 gene expression (case #9) was 96. For the same molecule, the NOTCH2 gene expression (case #9) was 101, the PLK1 gene expression (case #9) was 111 and the PSCA gene expression (case #9) was 94. The PTCH gene expression (case #9) was 78, the RRM1 gene expression (case #9) was 73 and the SHH gene expression (case #9) was 47. The Survivin gene expression (case #9) was 104, the TGFA gene expression (case #9) was 103 and the VEGF gene expression (case #9) was 87. The VHL gene expression (case #9) was 110, the p21 gene expression (case #9) was 83 and the AXIN2 gene expression (case #10) was 202. For the same molecule, the BAX gene expression (case #10) was 91, the BNIP3L gene expression (case #10) was 97 and the BRAF gene expression (case #10) was 65. For the same molecule, the BRCA1 gene expression (case #10) was 62, the CCND1 gene expression (case #10) was 69 and the CXCR4 gene expression (case #10) was 53. The CyclinB1 gene expression (case #10) was 89, the DCK gene expression (case #10) was 91 and the EGFR gene expression (case #10) was 50. For the same molecule, the ERCC1 gene expression (case #10) was 91, the FOS gene expression (case #10) was 96 and the GADD45A gene expression (case #10) was 106. For the same molecule, the GLI2 gene expression (case #10) was 30, the HIF1A gene expression (case #10) was 90 and the HIF1B gene expression (case #10) was 76. For the same molecule, the IGF1R gene expression (case #10) was 66, the IGFBP3 gene expression (case #10) was 96 and the IHH gene expression (case #10) was 93. It also gave a JUN gene expression (case #10) of 82, an MAP2K2 gene expression (case #10) of 89 and an MAPK1 gene expression (case #10) of 79. For the same molecule, the MAPK3 gene expression (case #10) was 73, the MDM2 gene expression (case #10) was 86 and the MSLN gene expression (case #10) was 90. For the same molecule, the NFKB1 gene expression (case #10) was 78, the NOTCH1 gene expression (case #10) was 70 and the NOTCH2 gene expression (case #10) was 101. For the same molecule, the PLK1 gene expression (case #10) was 68, the PSCA gene expression (case #10) was 108 and the PTCH gene expression (case #10) was 33. The RRM1 gene expression (case #10) was 92, the SHH gene expression (case #10) was 70 and the Survivin gene expression (case #10) was 64. The TGFA gene expression (case #10) was 141, the VEGF gene expression (case #10) was 97 and the VHL gene expression (case #10) was 74. The p21 gene expression (case #10) was 119.

From patent publication US20090221522A1, “METHODS TO CORRECT GENE SET EXPRESSION PROFILES TO DRUG SENSITIVITY” (The Johns Hopkins University, priority 2008, published 2009)
